Target: T1, IGF-1R (Homo sapiens, UniProt P08069)
T1 construct: expressed in transfected cells
Assay: Example B-2: IGF-1R Assay (PathHunter cell lines, EC80 agonist challenge, chemiluminescent detection)
Format: cell-based
Settings: PathHunter cells, compound 60 minutes at 37° C., EC80 agonist 3 hours; read-out: IC50, Biological Activity against IGF-1R (Table B2)
Procedure, shortened: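 PathHunter cells were pre-incubated with compound for 60 min at 37° C (1% vehicle), then challenged with EC80 agonist for 3 h at room temperature. Chemiluminescent detection after 1 h gave % inhibition relative to EC80 and vehicle controls, from which IC50 was derived.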

T1 sequence (P08069 31-1367): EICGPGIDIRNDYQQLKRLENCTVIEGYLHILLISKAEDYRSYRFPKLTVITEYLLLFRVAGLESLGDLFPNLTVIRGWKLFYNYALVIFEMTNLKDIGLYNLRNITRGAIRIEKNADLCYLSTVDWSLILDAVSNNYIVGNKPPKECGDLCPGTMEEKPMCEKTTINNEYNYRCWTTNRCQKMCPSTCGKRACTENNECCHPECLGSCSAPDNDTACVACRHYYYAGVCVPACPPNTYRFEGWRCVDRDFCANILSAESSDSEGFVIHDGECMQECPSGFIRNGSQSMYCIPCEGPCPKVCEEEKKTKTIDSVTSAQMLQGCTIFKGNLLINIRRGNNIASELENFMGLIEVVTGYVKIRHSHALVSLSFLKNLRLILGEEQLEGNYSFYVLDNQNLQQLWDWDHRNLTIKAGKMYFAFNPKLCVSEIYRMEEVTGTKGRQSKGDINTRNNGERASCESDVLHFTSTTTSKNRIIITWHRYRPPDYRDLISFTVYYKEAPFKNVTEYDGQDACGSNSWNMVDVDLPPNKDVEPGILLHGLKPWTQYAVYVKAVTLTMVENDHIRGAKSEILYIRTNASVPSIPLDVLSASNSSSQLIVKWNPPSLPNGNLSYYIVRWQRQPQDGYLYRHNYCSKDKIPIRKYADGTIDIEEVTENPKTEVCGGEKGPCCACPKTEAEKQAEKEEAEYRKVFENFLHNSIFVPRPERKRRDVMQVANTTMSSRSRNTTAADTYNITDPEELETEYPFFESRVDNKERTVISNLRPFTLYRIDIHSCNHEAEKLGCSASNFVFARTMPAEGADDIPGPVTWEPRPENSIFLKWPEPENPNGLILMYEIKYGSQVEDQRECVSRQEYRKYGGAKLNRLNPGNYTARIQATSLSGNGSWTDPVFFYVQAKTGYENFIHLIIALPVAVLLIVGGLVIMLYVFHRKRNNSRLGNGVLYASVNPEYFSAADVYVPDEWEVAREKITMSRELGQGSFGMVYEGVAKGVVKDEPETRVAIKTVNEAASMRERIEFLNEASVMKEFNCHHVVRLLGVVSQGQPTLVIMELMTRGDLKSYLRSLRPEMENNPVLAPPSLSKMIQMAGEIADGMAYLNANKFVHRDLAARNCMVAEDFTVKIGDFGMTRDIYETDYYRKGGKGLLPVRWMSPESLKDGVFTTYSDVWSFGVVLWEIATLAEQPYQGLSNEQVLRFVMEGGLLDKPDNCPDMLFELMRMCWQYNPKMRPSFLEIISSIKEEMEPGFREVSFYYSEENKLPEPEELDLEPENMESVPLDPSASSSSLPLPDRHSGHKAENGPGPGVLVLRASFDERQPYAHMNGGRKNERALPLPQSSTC

| Structure (SMILES) | IC50 [nM] |
| --- | --- |
| Cn1nc(C(C)(C)C)cc1N1C(=O)N(Cc2ccnc3[nH]ccc23)C(C)(C)C1=O [Compound 42, 1-((1H-pyrrolo[2,3-b]pyridin-4-yl)methyl)-3-(3-(tert-butyl)-1-methyl-1H-pyrazol-5-yl)-5,5-dimethylimidazolidine-2,4-dione] | > 10000 |
| CC1(C)C(=O)N(c2ccc3c(c2)N(S(C)(=O)=O)CC3)C(=O)N1Cc1ccnc(N[C@H]2[C@@H]3COC[C@@H]32)c1 [Compound 251, 1-((2-(((1R,5S,6r)-3-oxabicyclo[3.1.0]hexan-6-yl)amino)pyridin-4-yl)methyl)-5,5-dimethyl-3-(1-(methylsulfonyl)indolin-6-yl)imidazolidine-2,4-dione] | > 10000 |
| CC1(C)C(=O)N(c2ccc(S(=O)(=O)C(F)(F)F)cc2)C(=O)N1Cc1ccnc(NC2CCN(S(C)(=O)=O)C2)c1 (centres unmarked) [Compound 329, 5,5-dimethyl-1-((2-((1-(methylsulfonyl)pyrrolidin-3-yl)amino)pyridin-4-yl)methyl)-3-(4-((trifluoromethyl)sulfonyl)phenyl) imidazolidine-2,4-dione] | 500 to 2000 |
| CN1C[C@H](Nc2cc(CN3C(=O)N(c4ccc(S(=O)(=O)C(F)(F)F)cc4)C(=O)C3(C)C)ccn2)CC1=O [Compound 324, (R)-5,5-dimethyl-1-((2-((1-methyl-5-oxopyrrolidin-3-yl)amino)pyridin-4-yl)methyl)-3-(4-((trifluoromethyl)sulfonyl)phenyl) imidazolidine-2,4-dione] | 500 to 2000 |
| CC(C)Nc1cc(CN2C(=O)N(c3ccc4c(c3)C(O)(O)C(F)(F)S4(=O)=O)C(=O)C2(C)C)ccn1 [Compound 192, 3-(2,2-difluoro-3,3-dihydroxy-1,1-dioxido-2,3-dihydrobenzo[b]thiophen-5-yl)-1-((2-(isopropylamino)pyridin-4-yl)methyl)-5,5-dimethylimidazolidine-2,4-dione] | > 10000 |
| CN1CCC(Nc2cc(CN3C(=O)N(c4ccc(S(=O)(=O)C(F)(F)F)cc4)C(=O)C3(C)C)ccn2)C1=O (centres unmarked) [Compound 332, 5,5-dimethyl-1-((2-((1-methyl-2-oxopyrrolidin-3-yl)amino)pyridin-4-yl)methyl)-3-(4-((trifluoromethyl)sulfonyl)phenyl) imidazolidine-2,4-dione] | 2000 to 10000 |
| CC1(C)C(=O)N(c2ccc(C(F)(F)F)c(C#N)c2)C(=O)N1Cc1ccnc(N[C@H]2[C@@H]3COC[C@@H]32)c1 [Compound 180, 5-(3-((2-(((1R,5S,6r)-3-oxabicyclo[3.1.0]hexan-6-yl)amino)pyridin-4-yl)methyl)-4,4-dimethyl-2,5-dioxoimidazolidin-1-yl)-2-(trifluoromethyl)benzonitrile] | > 10000 |
| C[C@H](Nc1cc(CN2C(=O)N(c3ccc(S(=O)(=O)C(F)(F)F)cc3)C(=O)C2(C)C)ccn1)[C@H]1CCCO1 [Compound 340, 5,5-dimethyl-1-((2-(((S)-1-((R)-tetrahydrofuran-2-yl)ethyl)amino)pyridin-4-yl)methyl)-3-(4-((trifluoromethyl)sulfonyl)phenyl) imidazolidine-2,4-dione] | 2000 to 10000 |
| CC1(C)C(=O)N(c2ccc3c(c2)CCS3(=O)=O)C(=O)N1Cc1ccnc(N[C@H]2[C@@H]3COC[C@@H]32)c1 [Compound 250, 1-((2-(((1R,5S,6r)-3-oxabicyclo[3.1.0]hexan-6-yl)amino)pyridin-4-yl)methyl)-3-(1,1-dioxido-2,3-dihydrobenzo[b]thiophen-5-yl)-5,5-dimethylimidazolidine-2,4-dione] | > 10000 |
| CC1(C)C(=O)N(c2ccc(S(=O)(=O)C(F)F)cc2)C(=O)N1Cc1ccnc2c1CC(=O)N2 [Compound 63, 3-(4-((difluoromethyl)sulfonyl)phenyl)-5,5-dimethyl-1-((2-oxo-2,3-dihydro-1H-pyrrolo[2,3-b]pyridin-4-yl)methyl)imidazolidine-2,4-dione] | 500 to 2000 |
| CC1(C)C(=O)N(c2ccc(S(=O)(=O)C(F)(F)F)cc2)C(=O)N1Cc1ccnc(NC2CCN(S(C)(=O)=O)CC2)c1 [Compound 322, 5,5-dimethyl-1-((2-((1-(methylsulfonyl)piperidin-4-yl)amino)pyridin-4-yl)methyl)-3-(4-((trifluoromethyl)sulfonyl)phenyl) imidazolidine-2,4-dione] | 500 to 2000 |
| CC1(C)C(=O)N(c2ccc3c(c2)N(S(C)(=O)=O)CC3)C(=O)N1Cc1ccnc2c1CC(=O)N2 [Compound 67, 5,5-dimethyl-3-(1-(methylsulfonyl)indolin-6-yl)-1-((2-oxo-2,3-dihydro-1H-pyrrolo [2,3-b]pyridin-4-yl)methyl)imidazolidine-2,4-dione] | > 10000 |
| C[C@@H](Nc1cc(CN2C(=O)N(c3ccc4c(c3)N(S(C)(=O)=O)CC43CCC3)C(=O)C2(C)C)ccn1)c1cccnc1 [Compound 242, (R)-5,5-dimethyl-3-(1′-(methylsulfonyl)spiro[cyclobutane-1,3′-indolin]-6′-yl)-1-((2-((1-(pyridin-3-yl)ethyl)amino)pyridin-4-yl)methyl)imidazolidine-2,4-dione] | ≤ 500 |
| CC(C)Nc1cc(CN2C(=O)N(c3ccc(S(=O)(=O)C(C)(C)C)cc3)C(=O)C2(C)C)ccn1 [Compound 354, 3-(4-(tert-butylsulfonyl)phenyl)-1-((2-(isopropylamino)pyridin-4-yl)methyl)-5,5-dimethylimidazolidine-2,4-dione] | 500 to 2000 |
| CC(C)(C#N)c1ccc(N2C(=O)N(Cc3ccnc(NC4CCOCC4)c3)C(C)(C)C2=O)cc1 [Compound 153, 2-(4-(4,4-dimethyl-2,5-dioxo-3-((2-((tetrahydro-2H-pyran-4-yl)amino)pyridin-4-yl)methyl)imidazolidin-1-yl)phenyl)-2-methylpropanenitrile] | ≤ 500 |

Now from value to compound:

| IC50 [nM] | Structure (SMILES) |
| --- | --- |
| ≤ 500 | C[C@@H]1COc2c(CN3C(=O)N(c4ccc(S(=O)(=O)C(F)(F)F)cc4)C(=O)C3(C)C)ccnc2N1 [Compound 60, (R)-5,5-dimethyl-1-((3-methyl-3,4-dihydro-2H-pyrido[3,2-b][1,4]oxazin-8-yl)methyl)-3-(4-((trifluoromethyl)sulfonyl)phenyl) imidazolidine-2,4-dione] |
| ≤ 500 | COC[C@@H]1COc2c(CN3C(=O)N(c4ccc(C5(C(F)(F)F)CC5)cc4)C(=O)C3(C)C)ccnc2N1 [Compound 72, (R)-1-((3-(methoxymethyl)-3,4-dihydro-2H-pyrido[3,2-b][1,4]oxazin-8-yl)methyl)-5,5-dimethyl-3-(4-(1-(trifluoromethyl)cyclopropyl)phenyl) imidazolidine-2,4-dione] |
| ≤ 500 | COCC1(Nc2cc(CN3C(=O)N(c4ccc(C5(C(F)(F)F)CC5)cc4)C(=O)C3(C)C)ccn2)CC1 [Compound 159, 1-((2-((1-(methoxymethyl)cyclopropyl)amino)pyridin-4-yl)methyl)-5,5-dimethyl-3-(4-(1-(trifluoromethyl)cyclopropyl)phenyl) imidazolidine-2,4-dione] |
| ≤ 500 | CN(C)CC(=O)Nc1cc(N2C(=O)N(Cc3ccnc(N[C@H]4[C@@H]5COC[C@@H]54)c3)C(C)(C)C2=O)ccc1OC(F)(F)F [Compound 281, N-(5-(3-((2-(((1R,5S,6r)-3-oxabicyclo[3.1.0]hexan-6-yl)amino)pyridin-4-yl)methyl)-4,4-dimethyl-2,5-dioxoimidazolidin-1-yl)-2-(trifluoromethoxy)phenyl)-2-(dimethylamino)acetamide] |
| ≤ 500 | CNS(=O)(=O)c1ccc(CNc2cc(CN3C(=O)N(c4ccc(C5(C(F)(F)F)CC5)cc4)C(=O)C3(C)C)ccn2)cc1 [Compound 172, 4-(((4-((5,5-dimethyl-2,4-dioxo-3-(4-(1-(trifluoromethyl)cyclopropyl)phenyl)imidazolidin-1-yl)methyl)pyridin-2-yl)amino)methyl)-N-methylbenzenesulfonamide] |
| ≤ 500 | COCCOC[C@@H](C)Nc1cc(CN2C(=O)N(c3ccc4c(c3)N(S(C)(=O)=O)CC4(C)C)C(=O)C2(C)C)ccn1 [Compound 224, (R)-3-(3,3-dimethyl-1-(methylsulfonyl)indolin-6-yl)-1-((2-((1-(2-methoxyethoxy)propan-2-yl)amino)pyridin-4-yl)methyl)-5,5-dimethylimidazolidine-2,4-dione] |
| ≤ 500 | COC[C@@H](C)Nc1cc(CN2C(=O)N(c3cc(C(C)(C)C)nn3C)C(=O)C2(C)C)ccn1 [Compound 259, (R)-3-(3-(tert-butyl)-1-methyl-1H-pyrazol-5-yl)-1-((2-((1-methoxypropan-2-yl)amino)pyridin-4-yl)methyl)-5,5-dimethylimidazolidine-2,4-dione] |
| ≤ 500 | CC1(C)C(=O)N(c2ccc3c(c2)N(S(C)(=O)=O)CC32CC2(C)C)C(=O)N1Cc1ccnc(N[C@H]2[C@@H]3COC[C@@H]32)c1 (stereo partly drawn) [Compound 164, 1-((2-(((1R,5S,6r)-3-oxabicyclo[3.1.0]hexan-6-yl)amino)pyridin-4-yl)methyl)-3-(2,2-dimethyl-1′-(methylsulfonyl)spiro[cyclopropane-1,3′-indolin]-6′-yl)-5,5-dimethylimidazolidine-2,4-dione] |
| ≤ 500 | CC1(C)C(=O)N(c2ccc3c(c2)N(C(=O)C2CC2)CC32CCC2)C(=O)N1Cc1ccnc(NC2C3COCC32)c1 (centres unmarked) [Compound 234, 1-((2-((3-oxabicyclo[3.1.0]hexan-6-yl)amino)pyridin-4-yl)methyl)-3-(1′-(cyclopropanecarbonyl)spiro [cyclobutane-1,3′-indolin]-6′-yl)-5,5-dimethylimidazolidine-2,4-dione] |
| ≤ 500 | CC1(C)C(=O)N(c2ccc(C3(C(F)(F)F)CC3)cc2)C(=O)N1Cc1ccnc(NC2CCc3cn[nH]c3C2)c1 (centres unmarked) [Compound 161, 5,5-dimethyl-1-((2-((4,5,6,7-tetrahydro-1H-indazol-6-yl)amino)pyridin-4-yl)methyl)-3-(4-(1-(trifluoromethyl)cyclopropyl)phenyl) imidazolidine-2,4-dione] |
| ≤ 500 | CC1(C)C(=O)N(c2ccc(C3(C(F)(F)F)CC3)cc2)C(=O)N1Cc1ccnc2c1CCC(=O)N2 [Compound 38, 5,5-dimethyl-1-((7-oxo-5,6,7,8-tetrahydro-1,8-naphthyridin-4-yl)methyl)-3-(4-(1-(trifluoromethyl)cyclopropyl)phenyl) imidazolidine-2,4-dione] |

From patent US20250145585A1, “HETEROCYCLIC INHIBITORS OF IGF-1R FOR TREATMENT OF DISEASE” (HORIZON THERAPEUTICS IRELAND DAC, priority 2023, published 2025)
